# Assay results published in patent US12173018B2, “Penicillin-binding protein inhibitors” (priority 2018, dated 2024).
# Like-named read-outs stand apart in the source and are kept apart here.
# What was measured:
# E. coli ATCC 25922 = assay: Broth microdilution MIC, E. coli ATCC 25922; assay type: cell-based; conditions: Escherichia coli
# Procedure, shortened: (§1)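 Broth microdilution MICs followed CLSI methods in cation-supplemented Mueller-Hinton broth, with 2-fold serial compound dilutions. Log-phase cultures grown 3–5 h were added to a starting inoculum of 5×10^5 CFU/mL and incubated 16–20 h at 37 °C. The MIC was read visually as the lowest concentration with no growth.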
# E. coli AG100 = assay: Broth microdilution MIC, E. coli AG100 (wild-type parent); assay type: cell-based; conditions: Escherichia coli; wild-type parent E. coli AG100, broth microdilution; read-out: MIC E. coli AG100
# Procedure, shortened: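 Broth microdilution in cation-supplemented Mueller-Hinton broth, 2-fold serial compound dilutions, inoculum 5×10^5 CFU/mL from 3-5 h log culture.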
# E. coli 901C = assay: microbe, parasite or virus in culture; assay type: cell-based; conditions: Escherichia coli; hyper-permeable E. coli 901C, broth microdilution; read-out: MIC E. coli 901C
# Procedure, shortened: as §1
# E. coli AG100A = assay: microbe, parasite or virus in culture; assay type: cell-based; conditions: Escherichia coli, read-out: MIC E. coli AG100A
# Procedure, shortened: as §1
# E. coli D22 = assay: microbe, parasite or virus in culture; assay type: cell-based; conditions: Escherichia coli; hyper-permeable E. coli D22, broth microdilution; read-out: MIC E. coli D22
# Procedure, shortened: as §1
# K. pneumoniae SI-117 = assay: microbe, parasite or virus in culture; assay type: cell-based; conditions: Klebsiella pneumoniae, SI117, read-out: MIC K. pneumoniae SI-117
# Procedure, shortened: as §1
# K. pneumoniae UMM = assay: microbe, parasite or virus in culture; assay type: cell-based; conditions: Klebsiella pneumoniae; K. pneumoniae UMM producing SHV-5 and KPC-2; read-out: MIC K. pneumoniae UMM
# Procedure, shortened: as §1
# K. pneumoniae 848844 = assay: microbe, parasite or virus in culture; assay type: cell-based, Klebsiella pneumoniae; conditions: Klebsiella pneumoniae; K. pneumoniae 848844 producing SHV-11 and KPC-2; read-out: MIC K. pneumoniae 848844
# Procedure, shortened: as §1
# [1] = test system: N. gonorrhoeae ATCC 49226; assay: Liquid broth MIC, N. gonorrhoeae ATCC 49226; assay type: cell-based; conditions: Neisseria gonorrhoeae, ATCC49226; N. gonorrhoeae ATCC 49226, liquid broth; read-out: Minimum Inhibitory Concentration, N. gonorrhoeae ATCC 49226
# Procedure, shortened: (§2)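 Broth microdilution in wild-type strains: colonies from GC agar with 1% Kellogg's supplement suspended in GC broth, inoculated at 5×10^5 CFU/mL into 2-fold compound dilutions. Plates incubated 40-42 hours at 36° C., 5% CO2; MIC read visually as lowest concentration with no growth.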
# N. gonorrhoeae WHO F = assay: Liquid broth MIC, N. gonorrhoeae WHO F; assay type: cell-based; conditions: Neisseria gonorrhoeae; N. gonorrhoeae WHO F, liquid broth; read-out: Minimum Inhibitory Concentration, N. gonorrhoeae WHO F
# Procedure, shortened: as §2
# N. gonorrhoeae FA19 = assay: Liquid broth MIC, N. gonorrhoeae FA19; assay type: cell-based; conditions: Neisseria gonorrhoeae; N. gonorrhoeae FA19, liquid broth; read-out: Minimum Inhibitory Concentration, N. gonorrhoeae FA19
# Procedure, shortened: as §2
# [2] = ATCC25922, E. coli ATCC 25922, broth microdilution, read-out: MIC E. coli 25922
SMILES,MIC (E. coli ATCC 25922; [2]),MIC (E. coli AG100),MIC (E. coli 901C),MIC (E. coli AG100A),MIC (E. coli D22),MIC (K. pneumoniae SI-117),MIC (K. pneumoniae UMM),MIC (K. pneumoniae 848844),MIC [1],MIC (N. gonorrhoeae WHO F),MIC (N. gonorrhoeae FA19),"MIC (E. coli ATCC 25922; ATCC25922, read-out: MIC E. coli 25922)"
"CCN1CCN(C(=O)NC(C(=O)N[C@H]2Cc3cccc(C(=O)O)c3OB2O)c2ccc(S(N)(=O)=O)c(F)c2)C(=O)C1=O (stereo partly drawn) [Example 210, (3R)-3-(2-(4-ethyl-2,3-dioxopiperazine-1-carboxamido)-2-(3-fluoro-4-sulfamoylphenyl)acetamido)-2-hydroxy-3,4-dihydro-2H-benzo[e][1,2]oxaborinine-8-carboxylic acid]",8 to 16 µg/mL,32 to 64 µg/mL,< 0.25 µg/mL,2 to 4 µg/mL,2 to 4 µg/mL,> 128 µg/mL,32 to 64 µg/mL,> 128 µg/mL,4 to 8 µg/mL,< 0.125 µg/mL,1 to 2 µg/mL,–
"CCN1CCN(C(=O)NC(C(=O)N[C@H]2Cc3cccc(C(=O)O)c3OB2O)c2ccc(C(=O)O)cc2)C(=O)C1=O (stereo partly drawn) [Example 212, (3R)-3-(2-(4-carboxyphenyl)-2-(4-ethyl-2,3-dioxopiperazine-1-carboxamido)acetamido)-2-hydroxy-3,4-dihydro-2H-benzo[e][1,2]oxaborinine-8-carboxylic acid]",–,32 to 64 µg/mL,< 0.25 µg/mL,8 to 16 µg/mL,2 to 4 µg/mL,> 128 µg/mL,32 to 64 µg/mL,> 128 µg/mL,0.25 to 0.5 µg/mL,< 0.125 µg/mL,0.25 to 0.5 µg/mL,32 to 64 µg/mL
"O=C(O)c1cccc2c1OB(O)[C@@H](NC(=O)C(NC(=O)N1CCN(CCF)C(=O)C1=O)c1ccc(S(=O)(=O)NCCO)cc1)C2 (stereo partly drawn) [Example 213, (3R)-3-(2-(4-(2-fluoroethyl)-2,3-dioxopiperazine-1-carboxamido)-2-(4-(N-(2-hydroxyethyl)sulfamoyl)phenyl)acetamido)-2-hydroxy-3,4-dihydro-2H-benzo[e][1,2]oxaborinine-8-carboxylic acid]",> 128 µg/mL,32 to 64 µg/mL,0.5 to 1 µg/mL,8 to 16 µg/mL,2 to 4 µg/mL,> 128 µg/mL,32 to 64 µg/mL,> 128 µg/mL,4 to 8 µg/mL,0.25 to 0.5 µg/mL,16 to 32 µg/mL,–
"CCN1CCN(C(=O)NC(C(=O)N[C@H]2Cc3ccc(Cl)c(C(=O)O)c3OB2O)c2ncc(O)cc2F)C(=O)C1=O (stereo partly drawn) [Example 216, (3R)-7-chloro-3-(2-(4-ethyl-2,3-dioxopiperazine-1-carboxamido)-2-(3-fluoro-5-hydroxypyridin-2-yl)acetamido)-2-hydroxy-3,4-dihydro-2H-benzo[e][1,2]oxaborinine-8-carboxylic acid]",32 to 64 µg/mL,32 to 64 µg/mL,0.5 to 1 µg/mL,8 to 16 µg/mL,2 to 4 µg/mL,32 to 64 µg/mL,32 to 64 µg/mL,32 to 64 µg/mL,1 to 2 µg/mL,< 0.125 µg/mL,1 to 2 µg/mL,–
"CCN1CCN(C(=O)NC(C(=O)N[C@H]2Cc3ccc(Cl)c(C(=O)O)c3OB2O)c2ccc(O)c(O)c2Cl)C(=O)C1=O (stereo partly drawn) [Example 217, (3R)-7-chloro-3-(2-(2-chloro-3,4-dihydroxyphenyl)-2-(4-ethyl-2,3-dioxopiperazine-1-carboxamido)acetamido)-2-hydroxy-3,4-dihydro-2H-benzo[e][1,2]oxaborinine-8-carboxylic acid]",8 to 16 µg/mL,2 to 4 µg/mL,2 to 4 µg/mL,2 to 4 µg/mL,2 to 4 µg/mL,2 to 4 µg/mL,2 to 4 µg/mL,2 to 4 µg/mL,16 to 32 µg/mL,0.25 to 0.5 µg/mL,4 to 8 µg/mL,–
"CC[C@H]1CN(CC)C(=O)C(=O)N1C(=O)NC(C(=O)N[C@H]1Cc2cccc(C(=O)O)c2OB1O)c1ncc(O)cc1F (stereo partly drawn) [Example 218, (3R)-3-(2-((S)-4,6-diethyl-2,3-dioxopiperazine-1-carboxamido)-2-(3-fluoro-5-hydroxypyridin-2-yl)acetamido)-2-hydroxy-3,4-dihydro-2H-benzo[e][1,2]oxaborinine-8-carboxylic acid]",32 to 64 µg/mL,32 to 64 µg/mL,< 0.25 µg/mL,2 to 4 µg/mL,2 to 4 µg/mL,> 128 µg/mL,32 to 64 µg/mL,> 128 µg/mL,16 to 32 µg/mL,0.25 to 0.5 µg/mL,16 to 32 µg/mL,–
"C[C@H]1CN(CCO)C(=O)C(=O)N1C(=O)NC(C(=O)N[C@H]1Cc2cccc(C(=O)O)c2OB1O)c1ccc(O)c(O)c1Cl (stereo partly drawn) [Example 224, (3R)-3-(2-(2-chloro-3,4-dihydroxyphenyl)-2-((S)-4-(2-hydroxyethyl)-6-methyl-2,3-dioxopiperazine-1-carboxamido)acetamido)-2-hydroxy-3,4-dihydro-2H-benzo[e][1,2]oxaborinine-8-carboxylic acid]",2 to 4 µg/mL,2 to 4 µg/mL,0.5 to 1 µg/mL,0.5 to 1 µg/mL,2 to 4 µg/mL,2 to 4 µg/mL,2 to 4 µg/mL,2 to 4 µg/mL,> 64 µg/mL,4 to 8 µg/mL,> 64 µg/mL,–
"NCCN1CCN(C(=O)N[C@@H](C(=O)N[C@H]2Cc3cccc(C(=O)O)c3OB2O)c2ncc(O)cc2F)C(=O)C1=O [Example 225, (R)-3-((R)-2-(4-(2-aminoethyl)-2,3-dioxopiperazine-1-carboxamido)-2-(3-fluoro-5-hydroxypyridin-2-yl)acetamido)-2-hydroxy-3,4-dihydro-2H-benzo[e][1,2]oxaborinine-8-carboxylic acid]",8 to 16 µg/mL,8 to 16 µg/mL,0.5 to 1 µg/mL,0.5 to 1 µg/mL,2 to 4 µg/mL,8 to 16 µg/mL,8 to 16 µg/mL,32 to 64 µg/mL,16 to 32 µg/mL,0.25 to 0.5 µg/mL,4 to 8 µg/mL,–
"NCCN1CCN(C(=O)N[C@@H](C(=O)N[C@H]2Cc3ccc(F)c(C(=O)O)c3OB2O)c2ccc(O)c(O)c2Cl)C(=O)C1=O [Example 227, (R)-3-((R)-2-(4-(2-aminoethyl)-2,3-dioxopiperazine-1-carboxamido)-2-(2-chloro-3,4-dihydroxyphenyl)acetamido)-7-fluoro-2-hydroxy-3,4-dihydro-2H-benzo[e][1,2]oxaborinine-8-carboxylic acid]",0.5 to 1 µg/mL,< 0.25 µg/mL,< 0.25 µg/mL,< 0.25 µg/mL,0.5 to 1 µg/mL,0.5 to 1 µg/mL,0.5 to 1 µg/mL,0.5 to 1 µg/mL,4 to 8 µg/mL,1 to 2 µg/mL,4 to 8 µg/mL,–
"CC(=O)NCCN1CCN(C(=O)NC(C(=O)N[C@H]2Cc3cccc(C(=O)O)c3OB2O)c2ccc(O)c(O)c2Cl)C(=O)C1=O (stereo partly drawn) [Example 228, (3R)-3-(2-(4-(2-acetamidoethyl)-2,3-dioxopiperazine-1-carboxamido)-2-(2-chloro-3,4-dihydroxyphenyl)acetamido)-2-hydroxy-3,4-dihydro-2H-benzo[e][1,2]oxaborinine-8-carboxylic acid]",8 to 16 µg/mL,2 to 4 µg/mL,0.5 to 1 µg/mL,0.5 to 1 µg/mL,2 to 4 µg/mL,2 to 4 µg/mL,0.5 to 1 µg/mL,2 to 4 µg/mL,> 64 µg/mL,4 to 8 µg/mL,> 64 µg/mL,–
